# Target: T1, GPR119 receptor (UniProt Q8TDV5, S309L, species not given)
# T1 sequence (Q8TDV5 1-335 S309L): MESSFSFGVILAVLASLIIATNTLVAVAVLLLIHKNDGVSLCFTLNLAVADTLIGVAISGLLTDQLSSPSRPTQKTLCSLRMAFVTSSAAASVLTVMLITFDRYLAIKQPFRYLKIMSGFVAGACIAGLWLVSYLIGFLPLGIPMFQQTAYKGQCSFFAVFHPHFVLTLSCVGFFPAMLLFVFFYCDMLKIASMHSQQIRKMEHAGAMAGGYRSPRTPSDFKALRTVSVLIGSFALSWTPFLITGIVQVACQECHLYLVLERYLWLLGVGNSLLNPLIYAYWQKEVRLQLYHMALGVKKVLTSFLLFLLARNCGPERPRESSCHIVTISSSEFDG
# Assay: GPR119 signaling, cyclic AMP (cAMP) homogenous time resolved fluorescence (HTRF) assay
# Assay type: cell-based
# Settings: CHO cells with Gα15 and murine GPR119, or HEK293 Flp-In cells with human GPR119 S309L; table does not say which; read-out: Activity: inflection points, denoted as EC50 values (agonist activation of GPR119, cAMP)
# Description: Measurement of GPR119 Signaling Using a Cyclic AMP (cAMP) Homogenous Time Resolved Fluorescence (HTRF) Assay
# Chinese hamster ovary (CHO) cell lines stably transfected with the permissive guanine nucleotide binding protein alpha 15 (Gα15) and […] GPR119 were maintained in DMEM media containing FBS, penicillin-streptomycin, puromycin, and G418 (geneticin). Alternatively, human embryonic kidney (HEK)293 Flp-In cells (Invitrogen, Carlsbad, Calif.) were stably transfected with a human SNP variant (S309L) of GPR119 and maintained in DMEM media containing FBS, penicillin-streptomycin, and hygromycin. Agonist activation of the GPR119 receptor was measured in receptor transfected cells described above, treated with compounds of this invention, using a commercial homogenous time resolved fluorescence (HTRF) kit for measurement of cAMP (CisBio, Bedford, Mass.). The assay was performed in 96-well half-volume plates (murine) or 384-well plates (human) following the manufacturers instructions. Briefly, suspended cells were incubated with a dose titration of test compound at room temperature for 60 min, lysed, and incubated with HTRF reagents for an additional 60 min. The plate was read using an Envision multilabel reader (Perkin Elmer) adjusted to read time resolved fluorescence and the cAMP concentrations were extrapolated from a cAMP calibration curve. […] The concentration of test compound required to stimulate a half-maximal response (EC50), and efficacy as compared to an internal agonist control, was determined from a sigmoidal 4-parameter curve fit of the resulting plot of normalized activity versus compound concentration.
row,Compound,EC50 [nM]
1,"CS(=O)(=O)c1ccc(OCC[C@H]2C[C@H]2C2CCN(c3ncc(Cl)cn3)CC2)nc1 (racemic) [Ex 6a, rac-cis 5-chloro-2-{-4-[2-(2-{[5-(methylsulfonyl)pyridin-2-yl]oxy}ethyl)cyclopropyl]piperidin-1-yl}pyrimidine]",< 10
2,"CS(=O)(=O)c1cccc(OCCC2CC2C2CCN(c3ncc(Cl)cn3)CC2)c1 (racemic) [Ex 7, rac cis-5-chloro-2-[4-(2-{2-[3-(methylsulfonyl)phenoxy]ethyl}cyclopropyl)piperidin-1-yl]pyrimidine]",< 10
3,"Clc1cnc(N2CCC(C3CC3CCOc3cccc(-n4cncn4)c3)CC2)nc1 (racemic) [Ex 9, rac cis-5-chloro-2-[4-(2-{2-[3-(1H-1,2,4-triazol-1-yl)phenoxy]ethyl}cyclopropyl)piperidin-1-yl]pyrimidine]",50 to 200
4,"O=C(NC1CC1)c1ccc(OCCC2CC2C2CCN(c3ncc(Cl)cn3)CC2)cc1F (racemic) [Ex 11, rac cis-4-(2-{2-[1-(5-chloropyrimidin-2-yl)piperidin-4-yl]cyclopropyl}ethoxy)-N-cyclopropyl-2-fluorobenzamide]",< 10
5,"N#Cc1ccc(OCCC2CC2C2CCN(c3ncc(Cl)cn3)CC2)cc1F (racemic) [Ex 12, rac cis-4-(2-{2-[1-(5-chloropyrimidin-2-yl)piperidin-4-yl)cyclopropyl}ethoxy)-2-fluorobenzonitrile]",10 to 50
6,"O=S(=O)(c1ccc(OCCC2CC2C2CCN(c3ncc(Cl)cn3)CC2)cc1)C1CC1 (racemic) [Ex 13, rac cis-5-chloro-2-[4-(2-{2-[4-(cyclopropylsulfonyl)phenoxy]ethyl}cyclopropyl)piperidin-1-yl]pyrimidine]",10 to 50

# Further lines, results first:
row,EC50 [nM],Compound
1,< 10,"CS(=O)(=O)c1ccc(OCCC2CC2C2CCN(c3ncc(Cl)cn3)CC2)cc1 (racemic) [Ex 6, rac cis-5-chloro-2-[4-(2-{2-[4-(methylsulfonyl)phenoxy]ethyl}cyclopropyl)piperidin-1-yl]pyrimidine]"
2,> 200,"Cc1nnc(-c2cccc(OCCC3CC3C3CCN(c4ncc(Cl)cn4)CC3)c2)o1 (racemic) [Ex 8, rac cis-5-chloro-2-[4-(2-{2-[3-(5-methyl-1,3,4-oxadiazol-2-yl)phenoxy]ethyl}cyclopropyl)piperidin-1-yl]pyrimidine]"
3,> 200,"Clc1cnc(N2CCC(C3CC3CCOc3cccc(-c4nnco4)c3)CC2)nc1 (racemic) [Ex 10, rac cis-5-chloro-2-[4-(2-{2-[3-(1,3,4-oxadiazol-2-yl)phenoxy]ethyl}cyclopropyl)piperidin-1-yl]pyrimidine]"
4,10 to 50,"Clc1cnc(N2CCC(C3CC3CCOc3ccc(-c4nnco4)cc3)CC2)nc1 (racemic) [Ex 15, rac cis-5-chloro-2-[4-(2-{2-[4-(1,3,4-oxadiazol-2-yl)phenoxy]ethyl}cyclopropyl)piperidin-1-yl]pyrimidine]"
5,< 10,"Cc1nnc(-c2ccc(OCCC3CC3C3CCN(c4ncc(Cl)cn4)CC3)cc2)o1 (racemic) [Ex 16, rac cis-5-chloro-2-[4-(2-{2-[4-(5-methyl-1,3.4-oxadiazol-2-yl)phenoxy]ethyl}cyclopropyl)piperidin-1-yl]pyrimidine]"
6,50 to 200,"Clc1cnc(N2CCC(C3CC3CCOc3ccc(-c4ncon4)cc3)CC2)nc1 (racemic) [Ex 17, rac cis-5-chloro-2-[4-(2-{2-[4-(1,2,4-oxadiazol-3-yl)phenoxy]ethyl}cyclopropyl)piperidin-1-yl]pyrimidine]"
7,50 to 200,"Clc1cnc(N2CCC(C3CC3CCOc3ccc(-c4ncno4)cc3)CC2)nc1 (racemic) [Ex 18, rac cis-5-chloro-2-[4-(2-{2-[4-(1,2,4-oxadiazol-5-yl)phenoxy]ethy]}cyclopropyl)piperidin-1-yl]pyrimidine]"
8,10 to 50,"Clc1cnc(N2CCC(C3CC3CCOc3ccc(-c4cocn4)cc3)CC2)nc1 (racemic) [Ex 19, rac cis-5-chloro-2-[4-(2-{2-[4-(1,3-oxazol-4-yl)phenoxy]ethyl}cyclopropyl)piperidin-1-yl]pyrimidine]"
